Reference: US20240158385A1, “NOVEL COMPOUNDS” (Cerevance, Inc., priority 2021, published 2024)

These compounds were tested against T1, human KCNK13 (Homo sapiens, UniProt Q9HB14) (assay: KCNK13 antagonist activity, thallium (Tl+) flux FLIPR assay). Details: not given.
T1 construct: expressed in transfected cells
T1 sequence (Q9HB14 1-408): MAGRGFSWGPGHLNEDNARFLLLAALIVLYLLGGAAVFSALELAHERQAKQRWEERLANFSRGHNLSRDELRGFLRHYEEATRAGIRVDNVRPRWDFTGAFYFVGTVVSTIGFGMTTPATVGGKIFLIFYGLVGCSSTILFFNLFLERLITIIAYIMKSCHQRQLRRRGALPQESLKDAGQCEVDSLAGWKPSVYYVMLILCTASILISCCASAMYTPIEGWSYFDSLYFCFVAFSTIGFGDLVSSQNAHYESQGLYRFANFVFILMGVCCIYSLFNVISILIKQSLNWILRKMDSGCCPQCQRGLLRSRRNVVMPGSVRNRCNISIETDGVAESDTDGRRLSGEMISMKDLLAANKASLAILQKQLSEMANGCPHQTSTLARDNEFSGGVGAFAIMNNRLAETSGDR
Type: cell-based
Procedure: KCNK13 antagonist activity was determined by measuring changes in intracellular Thallium (Tl^+) concentrations using a Tl^+ sensitive fluorescent dye. The changes in fluorescent signal were monitored by Fluorescent Imaging Plate Reader (FLIPR™) technology available from Molecular Devices, LLC, US. KCNK13 mediated increases in intracellular Tl+concentration were readily detected by addition of a thallium sulfate stimulus. 24 hours prior to the assay, human embryonic kidney 293 cells (HEK 293 cells) stably expressing human KCNK13 were seeded in cell culture medium in PDL coated black, clear-bottom 384-well plates (commercially available from Corning Inc., 356663) and grown overnight at 37° C., 5% CO2. On the day of the assay, cell culture media was removed and cells were loaded with potassium dye (commercially sold by Molecular Devices, LLC, US, R8222) for 1 hour at room temperature in the dark. Test compounds (at 10 point half log concentration response curves from […]) were added to cells for 15 minutes prior to the addition of thallium sulfate to all wells. The IC50 values were determined from ten point concentration response curves. Curves were generated using the average of two wells for each data point.

| Structure (SMILES) | IC50 |
| --- | --- |
| Nc1nonc1-c1nc2cccnc2n1Cc1cncnc1 [Example 15, 4-[3-(pyrimidin-5-ylmethyl)imidazo[4,5-b]pyridin-2-yl]-1,2,5-oxadiazol-3-amine] | < 200 nM |

Same assay, conditions: HEK 293 cells stably expressing human KCNK13; Tl+ sensitive dye, FLIPR; compounds 15 minutes prior to thallium sulfate; 10 point half log curves from 10 PM; read-out: hKCNK13 IC50

| Structure (SMILES) | IC50 |
| --- | --- |
| Nc1nsnc1-c1nc2c(F)cccc2n1Cc1cccnn1 (single isomer, unassigned) [Example 157, 4-(4-fluoro-1-(pyridazin-3-ylmethyl)-benzimidazol-2-yl)-1,2,5-thiadiazol-3-amine] | < 200 nM |
| Nc1nonc1-c1nc2ccc(F)c(F)c2n1Cc1cccnn1 (single isomer, unassigned) [Example 162, 4-(6,7-difluoro-1-(pyridazin-3-ylmethyl)-benzimidazol-2-yl)-1,2,5-oxadiazol-3-amine] | < 50 nM |
| Nc1nonc1-c1nc2c(F)c(F)ccc2n1Cc1cccnn1 (single isomer, unassigned) [Example 163, 4-(4,5-difluoro-1-(pyridazin-3-ylmethyl)-benzimidazol-2-yl)-1,2,5-oxadiazol-3-amine] | < 200 nM |
| Nc1nonc1-c1nc2cccc(F)c2n1Cc1ccc(C(F)(F)F)nn1 (single isomer, unassigned) [Example 166, 4-(7-fluoro-1-((6-(trifluoromethyl)pyridazin-3-yl)methyl)-benzimidazol-2-yl)-1,2,5-oxadiazol-3-amine] | < 100 nM |
| Nc1nonc1-c1nc2c(F)cccc2n1Cc1ccc(C(F)(F)F)nn1 (single isomer, unassigned) [Example 167, 4-(4-fluoro-1-((6-(trifluoromethyl)pyridazin-3-yl)methyl)-benzimidazol-2-yl)-1,2,5-oxadiazol-3-amine] | < 1000 nM |
| Cc1ccc(Cn2c(-c3nonc3N)nc3cccc(F)c32)nn1 (single isomer, unassigned) [Example 168, 4-(7-fluoro-1-((6-methylpyridazin-3-yl)methyl)-benzimidazol-2-yl)-1,2,5-oxadiazol-3-amine] | < 50 nM |
| Cc1ccc(Cn2c(-c3nonc3N)nc3c(F)cccc32)nn1 (single isomer, unassigned) [Example 169, 4-(4-fluoro-1-((6-methylpyridazin-3-yl)methyl)-benzimidazol-2-yl)-1,2,5-oxadiazol-3-amine] | < 200 nM |
| Cc1nonc1-c1nc2ccc(F)c(F)c2n1Cc1cccnn1 (single isomer, unassigned) [Example 170, 3-(6,7-difluoro-1-(pyridazin-3-ylmethyl)-benzimidazol-2-yl)-4-methyl-1,2,5-oxadiazole] | < 100 nM |
| Cc1nonc1-c1nc2c(F)c(F)ccc2n1Cc1cccnn1 (single isomer, unassigned) [Example 171, 3-(4,5-difluoro-1-(pyridazin-3-ylmethyl)-benzimidazol-2-yl)-4-methyl-1,2,5-oxadiazole] | < 500 nM |
| Nc1nonc1-c1nc2cccc(F)c2n1Cc1ccc(C(F)F)nn1 (single isomer, unassigned) [Example 172, 4-(1-((6-(difluoromethyl)pyridazin-3-yl)methyl)-7-fluoro-benzimidazol-2-yl)-1,2,5-oxadiazol-3-amine] | < 200 nM |
| Nc1nonc1-c1nc2c(F)cccc2n1Cc1ccc(C(F)F)nn1 (single isomer, unassigned) [Example 173, 4-(1-((6-(difluoromethyl)pyridazin-3-yl)methyl)-4-fluoro-benzimidazol-2-yl)-1,2,5-oxadiazol-3-amine] | < 500 nM |
| N#Cc1ccc(Cn2c(-c3nonc3N)nc3cccc(F)c32)nn1 (single isomer, unassigned) [Example 174, 6-((2-(4-amino-1,2,5-oxadiazol-3-yl)-7-fluoro-benzimidazol-1-yl)methyl)pyridazine-3-carbonitrile] | < 100 nM |
| N#Cc1ccc(Cn2c(-c3nonc3N)nc3c(F)cccc32)nn1 (single isomer, unassigned) [Example 175, 6-((2-(4-amino-1,2,5-oxadiazol-3-yl)-4-fluoro-benzimidazol-1-yl)methyl)pyridazine-3-carbonitrile] | < 200 nM |
| COc1cc(Cn2c(-c3nonc3N)nc3cccc(F)c32)ccn1 (single isomer, unassigned) [Example 183, 4-(7-fluoro-1-((2-methoxypyridin-4-yl)methyl)-benzimidazol-2-yl)-1,2,5-oxadiazol-3-amine] | < 100 nM |
| COc1cc(Cn2c(-c3nonc3N)nc3c(F)cccc32)ccn1 (single isomer, unassigned) [Example 184, 4-(4-fluoro-1-((2-methoxypyridin-4-yl)methyl)-benzimidazol-2-yl)-1,2,5-oxadiazol-3-amine] | < 100 nM |
| Nc1nonc1-c1nc2cncc(F)c2n1Cc1cccnn1 (single isomer, unassigned) [Example 187, 4-(7-fluoro-1-(pyridazin-3-ylmethyl)-1H-imidazo[4,5-c]pyridin-2-yl)-1,2,5-oxadiazol-3-amine] | < 500 nM |

| Structure (SMILES) | IC50 |
| --- | --- |
| Nc1nonc1-c1nc2c(F)cncc2n1Cc1cccnn1 (single isomer, unassigned) [Example 188, 4-(7-fluoro-3-(pyridazin-3-ylmethyl)-3H-imidazo[4,5-c]pyridin-2-yl)-1,2,5-oxadiazol-3-amine] | < 5000 nM |
| Cc1nonc1-c1nc2ccc(F)c(F)c2n1Cc1cnc(C#N)nc1 [Example 1, 5-[[6,7-difluoro-2-(4-methyl-1,2,5-oxadiazol-3-yl)benzimidazol-1-yl]methyl]pyrimidine-2-carbonitrile] | < 100 nM |
| N#Cc1ncc(Cn2c(-c3nonc3N)nc3ccc(F)c(F)c32)cn1 [Example 2, 5-[[2-(4-amino-1,2,5-oxadiazol-3-yl)-6,7-difluoro-benzimidazol-1-yl]methyl]pyrimidine-2-carbonitrile] | < 50 nM |
| Nc1nonc1-c1nc2cccc(F)c2n1Cc1cncnc1 [Example 3, 4-[7-fluoro-1-(pyrimidin-5-ylmethyl)benzimidazol-2-yl]-1,2,5-oxadiazol-3-amine] | < 50 nM |
| Nc1nonc1-c1nc2cccc(F)c2n1Cc1cccnn1 [Example 6, 4-[7-fluoro-1-(pyridazin-3-ylmethyl)benzimidazol-2-yl]-1,2,5-oxadiazol-3-amine] | < 100 nM |
| Cc1nonc1-c1nc2ccc(F)c(F)c2n1Cc1cncnc1 [Example 7, 3-[6,7-difluoro-1-(pyrimidin-5-ylmethyl)benzimidazol-2-yl]-4-methyl-1,2,5-oxadiazole] | < 100 nM |
| N#Cc1ccc(Cn2c(-c3nonc3N)nc3c(F)cccc32)cn1 [Example 8, 5-[[2-(4-amino-1,2,5-oxadiazol-3-yl)-4-fluoro-benzimidazol-1-yl]methyl]pyridine-2-carbonitrile] | < 100 nM |
| Cc1nonc1-c1nc2c(F)cccc2n1Cc1cncnc1 [Example 9, 3-[4-fluoro-1-(pyrimidin-5-ylmethyl)benzimidazol-2-yl]-4-methyl-1,2,5-oxadiazole] | < 100 nM |
| COc1ccc(Cn2c(-c3nonc3N)nc3cccc(F)c32)cn1 [Example 10, 4-[7-fluoro-1-[(6-methoxypyridin-3-yl)methyl]benzimidazol-2-yl]-1,2,5-oxadiazol-3-amine] | < 100 nM |
| N#Cc1ncc(Cn2c(-c3nonc3N)nc3cccnc32)cn1 [Example 11, 5-[[2-(4-amino-1,2,5-oxadiazol-3-yl)imidazo[4,5-b]pyridin-3-yl]methyl]pyrimidine-2-carbonitrile] | < 200 nM |
| Nc1nonc1-c1nc2cc(F)cnc2n1Cc1cncnc1 [Example 12, 4-[6-fluoro-3-(pyrimidin-5-ylmethyl)imidazo[4,5-b]pyridin-2-yl]-1,2,5-oxadiazol-3-amine] | < 200 nM |
| Cc1nonc1-c1nc2cccnc2n1Cc1cncnc1 [Example 13, 3-methyl-4-[3-(pyrimidin-5-ylmethyl)imidazo[4,5-b]pyridin-2-yl]-1,2,5-oxadiazole] | < 200 nM |
| COc1ccc(Cn2c(-c3nonc3N)nc3cccnc32)cn1 [Example 14, 4-[3-[(6-methoxypyridin-3-yl)methyl]imidazo[4,5-b]pyridin-2-yl]-1,2,5-oxadiazol-3-amine] | < 200 nM |
| COc1ccc(Cn2c(-c3nonc3C)nc3cccnc32)cn1 [Example 16, 3-[3-[(6-methoxypyridin-3-yl)methyl]imidazo[4,5-b]pyridin-2-yl]-4-methyl-1,2,5-oxadiazole] | < 200 nM |
| Cc1nonc1-c1nc2cccnc2n1Cc1ccc(C(F)(F)F)nc1 [Example 17, 3-methyl-4-[3-[[6-(trifluoromethyl)pyridin-3-yl]methyl]imidazo[4,5-b]pyridin-2-yl]-1,2,5-oxadiazole] | < 500 nM |
| Cc1nonc1-c1nc2cccnc2n1Cc1ccc(C#N)nn1 [Example 18, 6-[[2-(4-methyl-1,2,5-oxadiazol-3-yl)imidazo[4,5-b]pyridin-3-yl]methyl]pyridazine-3-carbonitrile] | < 500 nM |
